In patent US11834454B2, “Alkynylphenylbenzamide compounds and applications thereof” (SHENZHEN NEWDEL BIOTECH CO., LTD., priority 2021, dated 2023):

Assays:
TRKA = target: T1, TRKA (Homo sapiens, UniProt P04629); test: Z'-LYTE kinase activity detection, TRKA; type: biochemical
T1 construct: purchased American Life Technologies PV3144

TRKB = target: T2, TRKB (Homo sapiens, UniProt Q16620); test: Z'-LYTE kinase activity detection, TRKB; type: biochemical
T2 construct: purchased American Life Technologies PV3616
T2 sequence (Q16620 32-822): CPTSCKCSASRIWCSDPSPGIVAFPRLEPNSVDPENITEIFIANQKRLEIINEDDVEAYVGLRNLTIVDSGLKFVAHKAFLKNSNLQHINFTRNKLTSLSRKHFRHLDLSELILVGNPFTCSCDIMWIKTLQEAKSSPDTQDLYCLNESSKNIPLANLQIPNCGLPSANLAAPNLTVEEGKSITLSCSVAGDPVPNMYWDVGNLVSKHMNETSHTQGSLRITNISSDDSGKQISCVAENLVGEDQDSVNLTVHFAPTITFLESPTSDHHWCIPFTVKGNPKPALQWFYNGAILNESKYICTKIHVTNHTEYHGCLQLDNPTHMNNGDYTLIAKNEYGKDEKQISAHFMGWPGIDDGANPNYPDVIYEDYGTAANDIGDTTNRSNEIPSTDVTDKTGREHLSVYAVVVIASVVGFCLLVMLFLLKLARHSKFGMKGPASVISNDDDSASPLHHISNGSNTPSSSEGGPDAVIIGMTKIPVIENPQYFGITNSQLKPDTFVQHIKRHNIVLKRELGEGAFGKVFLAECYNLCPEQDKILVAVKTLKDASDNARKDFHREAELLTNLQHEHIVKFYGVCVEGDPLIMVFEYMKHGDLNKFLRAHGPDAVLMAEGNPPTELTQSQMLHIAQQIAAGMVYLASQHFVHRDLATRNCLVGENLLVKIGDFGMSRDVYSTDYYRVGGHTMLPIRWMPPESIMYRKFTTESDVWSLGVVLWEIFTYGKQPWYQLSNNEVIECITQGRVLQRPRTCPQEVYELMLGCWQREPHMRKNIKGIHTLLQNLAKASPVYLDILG

TRKC = target: T3, TRKC (Homo sapiens, UniProt Q16288); test: Z'-LYTE kinase activity detection, TRKC; type: biochemical
T3 construct: purchased American Life Technologies PV3617
T3 sequence (Q16288 32-839): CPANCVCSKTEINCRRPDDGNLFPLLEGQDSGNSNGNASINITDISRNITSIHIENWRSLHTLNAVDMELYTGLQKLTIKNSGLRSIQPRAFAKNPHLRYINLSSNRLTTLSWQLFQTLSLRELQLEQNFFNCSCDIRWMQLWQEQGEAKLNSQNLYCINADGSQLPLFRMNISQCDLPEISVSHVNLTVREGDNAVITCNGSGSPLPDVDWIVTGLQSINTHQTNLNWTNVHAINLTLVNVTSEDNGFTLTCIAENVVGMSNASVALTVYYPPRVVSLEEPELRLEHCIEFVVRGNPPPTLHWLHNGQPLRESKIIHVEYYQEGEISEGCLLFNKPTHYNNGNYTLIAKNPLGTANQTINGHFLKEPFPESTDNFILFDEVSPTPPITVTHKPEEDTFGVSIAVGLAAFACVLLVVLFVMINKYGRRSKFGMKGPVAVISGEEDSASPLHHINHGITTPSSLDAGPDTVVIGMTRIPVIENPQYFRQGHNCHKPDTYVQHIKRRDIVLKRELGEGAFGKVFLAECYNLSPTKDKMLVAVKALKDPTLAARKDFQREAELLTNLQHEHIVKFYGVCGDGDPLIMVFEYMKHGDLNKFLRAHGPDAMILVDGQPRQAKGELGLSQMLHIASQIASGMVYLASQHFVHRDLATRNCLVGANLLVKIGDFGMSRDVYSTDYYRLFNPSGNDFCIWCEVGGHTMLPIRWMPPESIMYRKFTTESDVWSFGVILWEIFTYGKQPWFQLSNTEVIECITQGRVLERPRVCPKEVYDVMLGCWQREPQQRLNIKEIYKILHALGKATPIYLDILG

BaF3-CD74-NTRK1-F589L = target: T4, BaF3-CD74-NTRK1-F589L (Homo sapiens, UniProt P04629, F589L); test: Drug-resistant cell proliferation inhibition (CCK-8); type: cell-based, mouse; conditions: 72 hours, read-out: drug-resistant cell viability IC50
T4 construct: fused on or other part: P04233 (HLA class II histocompatibility antigen gamma chain)
T4 sequence (P04629 510-796 F589L limits assumed): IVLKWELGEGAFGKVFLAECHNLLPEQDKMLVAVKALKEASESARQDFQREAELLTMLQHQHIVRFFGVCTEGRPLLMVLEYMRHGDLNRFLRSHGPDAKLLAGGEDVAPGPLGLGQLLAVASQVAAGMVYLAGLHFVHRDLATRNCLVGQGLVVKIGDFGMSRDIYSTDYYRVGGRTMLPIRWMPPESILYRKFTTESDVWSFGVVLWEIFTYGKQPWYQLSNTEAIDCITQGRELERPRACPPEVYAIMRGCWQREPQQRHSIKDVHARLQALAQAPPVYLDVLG
Text: (§1) BaF3 cells (mouse pre-B cells) used in this experiment were purchased from Japan Cell Bank, all of the monoclonal stable strains, BaF3-CD74-NTRK1-G667C, BaF3-CD74-NTRK1-F589L, BaF3-CD74-NTRK1-G595R, BaF3-CD74-NTRK1-G667A, BaF3-CD74-NTRK1-V573M, BaF3-ETV6-NTRK2-G639R, BaF3-ETV6-NTRK2-G709C, BaF3-ETV6-NTRK2-V617M, BaF3-ETV6-NTRK2-F633L, BaF3-ETV6-NTRK3-G696C, BaF3-ETV6-NTRK3-G696A, BaF3-ETV6-NTRK3-G623R, BaF3-ETV6-NTRK3-G623E, BaF3-ETV6-NTRK3-F617L and BaF3-ETV6-NTRK3-V601M were constructed by our laboratory, and were identified by experiments such as positive control, protein expression and gene sequencing.
(§2) The brief steps for stable strains construction were as follows: constructed pCDNA3.1(+) plasmid vector carrying genes such as BaF3-CD74-NTRK1-G667C, BaF3-CD74-NTRK1-F589L, BaF3-CD74-NTRK1-G595R, BaF3-CD74-NTRK1-G667A, BaF3-CD74-NTRK1-V573M, BaF3-ETV6-NTRK2-G639R, BaF3-ETV6-NTRK2-G709C, BaF3-ETV6-NTRK2-V617M, BaF3-ETV6-NTRK2-F633L, BaF3-ETV6-NTRK3-G696C, BaF3-ETV6-NTRK3-G696A, BaF3-ETV6-NTRK3-G623R, BaF3-ETV6-NTRK3-G623E, BaF3-ETV6-NTRK3-F617L and BaF3-ETV6-NTRK3-V601M; the plasmid was electroporated into Ba/F3 cells using Amaxa® Cell Line Nucleofector® Kit V; 48 hours after of electroporation, geneticin (G418) with a final concentration of 1000 μg/mL was added to screen for two weeks, and the interleukin 3 (IL3) was removed to continue screening to obtain polyclonal stable strains; and then single clones were selected by limiting dilution method; the stable strains were then identified by the positive drugs, Western Blot (WB), and gene sequencing; the correct monoclonal through identification can be used to study the cell proliferation inhibitory activity of the inhibitors.
(§3) Cell proliferation inhibitory activity study: The cells in logarithmic growth phase were seeded into 96-well plates at 8000-12000 cells/well, and the inhibitors at different concentrations of (0-10 μM) were added the next day, and the culture was continued for 72 hours; then 10 μL of Cell Counting Kit-8 Cell Counting Reagent (CCK-8 Reagent) was added to each well, and continued to incubate for 1-3 hours; then its absorbance at 450 nm and 650 nm were measured with a super microplate reader. The median inhibitory concentration (IC50) was calculated using medical graphing software (GraphPad Prism 8.0.0).

BaF3-CD74-NTRK1-G595R = target: T5, BaF3-CD74-NTRK1-G595R (Homo sapiens, UniProt P04629, G595R); test: as above; type: cell-based, mouse; conditions: 72 hours, read-out: drug-resistant cell viability IC50
T5 construct: constructed pCDNA3.1(+) plasmid vector carrying genes such as; fused on or other part: P04233 (HLA class II histocompatibility antigen gamma chain)
T5 sequence (P04629 510-796 G595R limits assumed): as the sequence (P04629 510-796 F589L limits assumed) above, with L80F, G86R counted along it
Text: as §1, §2, §3

BaF3-CD74-NTRK1-G667A = target: T6, BaF3-CD74-NTRK1-G667A (Homo sapiens, UniProt P04629, G667A); test: as above; type: cell-based, mouse; conditions: 72 hours, read-out: drug-resistant cell viability IC50
T6 construct: constructed pCDNA3.1(+) plasmid vector carrying genes such as; fused on or other part: P04233 (HLA class II histocompatibility antigen gamma chain)
T6 sequence (P04629 510-796 G667A limits assumed): as the sequence (P04629 510-796 F589L limits assumed) above, with L80F, G158A counted along it
Text: as §1, §2, §3

BaF3-CD74-NTRK1-G667C = target: T7, BaF3-CD74-NTRK1-G667C (Homo sapiens, UniProt P04629, G667C); test: as above; type: cell-based, mouse; conditions: 72 hours, read-out: drug-resistant cell viability IC50
T7 construct: fused on or other part: P04233 (HLA class II histocompatibility antigen gamma chain)
T7 sequence (P04629 510-796 G667C limits assumed): as the sequence (P04629 510-796 F589L limits assumed) above, with L80F, G158C counted along it
Text: as §1, §2, §3

BaF3-CD74-NTRK1-V573M = target: T8, BaF3-CD74-NTRK1-V573M (Homo sapiens, UniProt P04629, V573M); test: as above; type: cell-based, mouse; conditions: 72 hours, read-out: drug-resistant cell viability IC50
T8 construct: constructed pCDNA3.1(+) plasmid vector carrying genes such as BaF3-CD74-NTRK1-G667C; fused on or other part: P04233 (HLA class II histocompatibility antigen gamma chain)
T8 sequence (P04629 510-796 V573M limits assumed): as the sequence (P04629 510-796 F589L limits assumed) above, with V64M, L80F counted along it
Text: as §1, §2, §3

BaF3-ETV6-NTRK2-F633L = target: T9, BaF3-ETV6-NTRK2-F633L (Homo sapiens, UniProt Q16620, F617L); test: as above; type: cell-based, mouse; conditions: 72 hours, read-out: drug-resistant cell viability IC50
T9 construct: constructed pCDNA3.1(+) plasmid vector carrying genes such as; fused on or other part: P41212 (Transcription factor ETV6)
T9 sequence (Q16620 538-822 F617L limits assumed): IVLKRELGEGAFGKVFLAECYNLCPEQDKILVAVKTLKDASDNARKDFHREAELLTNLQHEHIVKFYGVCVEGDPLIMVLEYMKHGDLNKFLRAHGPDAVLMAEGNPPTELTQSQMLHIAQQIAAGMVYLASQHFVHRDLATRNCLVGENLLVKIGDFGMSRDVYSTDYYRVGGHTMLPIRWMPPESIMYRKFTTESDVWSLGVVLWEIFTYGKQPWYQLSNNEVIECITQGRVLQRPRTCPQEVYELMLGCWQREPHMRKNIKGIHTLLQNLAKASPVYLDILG
Text: as §1, §2, §3

BaF3-ETV6-NTRK2-G639R = target: T10, BaF3-ETV6-NTRK2-G639R (Homo sapiens, UniProt Q16620, G623R); test: as above; type: cell-based, mouse; conditions: 72 hours, read-out: drug-resistant cell viability IC50
T10 construct: constructed pCDNA3.1(+) plasmid vector carrying genes such as; fused on or other part: P41212 (Transcription factor ETV6)
T10 sequence (Q16620 538-822 G623R limits assumed): as the sequence (Q16620 538-822 F617L limits assumed) above, with L80F, G86R counted along it
Text: as §1, §2, §3

BaF3-ETV6-NTRK2-G709C = target: T11, BaF3-ETV6-NTRK2-G709C (Homo sapiens, UniProt Q16620, G693C); test: as above; type: cell-based, mouse; conditions: 72 hours, read-out: drug-resistant cell viability IC50
T11 construct: constructed pCDNA3.1(+) plasmid vector carrying genes such as; fused on or other part: P41212 (Transcription factor ETV6)
T11 sequence (Q16620 538-822 G693C limits assumed): as the sequence (Q16620 538-822 F617L limits assumed) above, with L80F, G156C counted along it
Text: as §1, §2, §3

BaF3-ETV6-NTRK2-V617M = target: T12, BaF3-ETV6-NTRK2-V617M (Homo sapiens, UniProt Q16620, V601M); test: as above; type: cell-based, mouse; conditions: 72 hours, read-out: drug-resistant cell viability IC50
T12 construct: constructed pCDNA3.1(+) plasmid vector carrying genes such as; fused on or other part: P41212 (Transcription factor ETV6)
T12 sequence (Q16620 538-822 V601M limits assumed): as the sequence (Q16620 538-822 F617L limits assumed) above, with V64M, L80F counted along it
Text: as §1, §2, §3

BaF3-ETV6-NTRK3-G623E = target: T13, BaF3-ETV6-NTRK3-G623E (Homo sapiens, UniProt Q16288, G623E); test: as above; type: cell-based, mouse; conditions: 72 hours, read-out: drug-resistant cell viability IC50
T13 construct: constructed pCDNA3.1(+) plasmid vector carrying genes such as; fused on or other part: P41212 (Transcription factor ETV6)
T13 sequence (Q16288 whole entry G623E, the tested form may be a part): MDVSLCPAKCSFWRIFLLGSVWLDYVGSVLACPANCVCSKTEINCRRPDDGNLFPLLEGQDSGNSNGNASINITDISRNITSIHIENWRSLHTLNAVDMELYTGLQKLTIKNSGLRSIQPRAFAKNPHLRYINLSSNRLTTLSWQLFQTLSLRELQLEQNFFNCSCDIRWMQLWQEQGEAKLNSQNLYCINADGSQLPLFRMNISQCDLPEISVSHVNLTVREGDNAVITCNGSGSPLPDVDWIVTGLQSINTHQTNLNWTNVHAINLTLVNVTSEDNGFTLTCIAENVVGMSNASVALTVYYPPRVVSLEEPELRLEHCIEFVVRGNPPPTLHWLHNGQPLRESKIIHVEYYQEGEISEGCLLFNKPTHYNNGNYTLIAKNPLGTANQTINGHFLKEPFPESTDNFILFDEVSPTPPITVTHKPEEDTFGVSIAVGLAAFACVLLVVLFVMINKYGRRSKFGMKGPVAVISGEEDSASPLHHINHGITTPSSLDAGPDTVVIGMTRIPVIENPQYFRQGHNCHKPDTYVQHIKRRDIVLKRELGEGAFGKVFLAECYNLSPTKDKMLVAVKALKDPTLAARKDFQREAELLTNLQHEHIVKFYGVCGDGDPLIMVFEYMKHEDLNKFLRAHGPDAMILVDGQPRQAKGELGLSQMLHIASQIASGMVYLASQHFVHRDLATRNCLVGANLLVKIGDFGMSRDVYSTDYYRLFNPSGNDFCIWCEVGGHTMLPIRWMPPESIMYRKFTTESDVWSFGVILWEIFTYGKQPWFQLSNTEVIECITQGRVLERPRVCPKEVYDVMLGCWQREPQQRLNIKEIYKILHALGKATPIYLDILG
Text: as §1, §2, §3

BaF3-ETV6-NTRK3-G623R = target: T14, BaF3-ETV6-NTRK3-G623R (Homo sapiens, UniProt Q16288, G623R); test: as above; type: cell-based, mouse; conditions: 72 hours, read-out: drug-resistant cell viability IC50
T14 construct: constructed pCDNA3.1(+) plasmid vector carrying genes such as; fused on or other part: P41212 (Transcription factor ETV6)
T14 sequence (Q16288 whole entry G623R, the tested form may be a part): as the sequence (Q16288 whole entry G623E, the tested form may be a part) above, with E623R counted along it
Text: as §1, §2, §3

BaF3-ETV6-NTRK3-G696A = target: T15, BaF3-ETV6-NTRK3-G696A (Homo sapiens, UniProt Q16288, G696A); test: as above; type: cell-based, mouse; conditions: 72 hours, read-out: drug-resistant cell viability IC50
T15 construct: constructed pCDNA3.1(+) plasmid vector carrying genes such as; fused on or other part: P41212 (Transcription factor ETV6)
T15 sequence (Q16288 whole entry G696A, the tested form may be a part): as the sequence (Q16288 whole entry G623E, the tested form may be a part) above, with E623G, G696A counted along it
Text: as §1, §2, §3

BaF3-ETV6-NTRK3-G696C = target: T16, BaF3-ETV6-NTRK3-G696C (Homo sapiens, UniProt Q16288, G696C); test: as above; type: cell-based, mouse; conditions: 72 hours, read-out: drug-resistant cell viability IC50
T16 construct: constructed pCDNA3.1(+) plasmid vector carrying genes such as; fused on or other part: P41212 (Transcription factor ETV6)
T16 sequence (Q16288 whole entry G696C, the tested form may be a part): as the sequence (Q16288 whole entry G623E, the tested form may be a part) above, with E623G, G696C counted along it
Text: as §1, §2, §3

BaF3-ETV6-NTRK3-V601M = target: T17, BaF3-ETV6-NTRK3-V601M (Homo sapiens, UniProt Q16288, V601M); test: as above; type: cell-based, mouse; conditions: 72 hours, read-out: drug-resistant cell viability IC50
T17 construct: constructed pCDNA3.1(+) plasmid vector carrying genes such as; fused on or other part: P41212 (Transcription factor ETV6)
T17 sequence (Q16288 whole entry V601M, the tested form may be a part): as the sequence (Q16288 whole entry G623E, the tested form may be a part) above, with V601M, E623G counted along it
Text: as §1, §2, §3

T1 sequence (P04629 33-796): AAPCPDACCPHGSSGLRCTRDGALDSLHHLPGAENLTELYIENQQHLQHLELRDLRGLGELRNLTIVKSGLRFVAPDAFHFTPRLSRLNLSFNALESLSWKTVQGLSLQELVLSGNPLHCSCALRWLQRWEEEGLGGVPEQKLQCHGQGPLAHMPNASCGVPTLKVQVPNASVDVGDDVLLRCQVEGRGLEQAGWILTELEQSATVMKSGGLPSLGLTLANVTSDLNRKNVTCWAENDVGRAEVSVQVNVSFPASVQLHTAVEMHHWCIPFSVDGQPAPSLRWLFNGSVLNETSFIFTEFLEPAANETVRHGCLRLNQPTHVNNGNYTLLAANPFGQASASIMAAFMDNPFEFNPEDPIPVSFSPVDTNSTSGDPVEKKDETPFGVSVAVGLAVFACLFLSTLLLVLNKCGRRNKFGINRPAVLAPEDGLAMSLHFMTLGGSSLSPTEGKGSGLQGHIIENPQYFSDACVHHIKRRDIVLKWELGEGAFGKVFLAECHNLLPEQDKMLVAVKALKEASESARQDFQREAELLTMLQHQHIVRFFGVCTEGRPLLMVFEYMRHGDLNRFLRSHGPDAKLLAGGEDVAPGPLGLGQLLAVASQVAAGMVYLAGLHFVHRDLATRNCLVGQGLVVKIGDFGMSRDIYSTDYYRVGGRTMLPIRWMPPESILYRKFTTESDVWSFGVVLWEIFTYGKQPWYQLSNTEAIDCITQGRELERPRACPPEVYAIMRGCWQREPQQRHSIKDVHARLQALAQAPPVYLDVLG

IC50 (TRKA) [nM]	IC50 (TRKB) [nM]	IC50 (TRKC) [nM]	Compound	IC50 (BaF3-CD74-NTRK1-F589L) [nM]	IC50 (BaF3-CD74-NTRK1-G595R) [nM]	IC50 (BaF3-CD74-NTRK1-G667A) [nM]	IC50 (BaF3-CD74-NTRK1-G667C) [nM]	IC50 (BaF3-CD74-NTRK1-V573M) [nM]	IC50 (BaF3-ETV6-NTRK2-F633L) [nM]	IC50 (BaF3-ETV6-NTRK2-G639R) [nM]	IC50 (BaF3-ETV6-NTRK2-G709C) [nM]	IC50 (BaF3-ETV6-NTRK2-V617M) [nM]	IC50 (BaF3-ETV6-NTRK3-G623E) [nM]	IC50 (BaF3-ETV6-NTRK3-G623R) [nM]	IC50 (BaF3-ETV6-NTRK3-G696A) [nM]	IC50 (BaF3-ETV6-NTRK3-G696C) [nM]	IC50 (BaF3-ETV6-NTRK3-V601M) [nM]
< 10	< 10	< 10	Cc1c(C#Cc2cnc3ccc(N4CCC(O)CC4)nn23)cccc1C(=O)Nc1cc(CN2CCN(C)CC2)cc(C(F)(F)F)c1 [XS3-81, 3-((6-(4-HYDROXYPIPERIDIN-1-YL)IMIDAZO[1,2-B]PYRIDAZIN-3-YL)ETHYNYL)-2-METHYL-N-(3-(((4-METHYLPIPERAZIN-1-YL)METHYL)-5-(TRIFLUOROMETHYL)PHENYL)BENZAMIDE]	100 to 1000	100 to 1000	< 10	< 10	< 10	100 to 1000	10 to 100	10 to 100	< 10	< 10	10 to 100	< 10	< 10	< 10
< 10		10 to 100	Cc1c(C#Cc2cnc3ccc(N4CCC(O)CC4)nn23)cccc1C(=O)Nc1cc(Cl)cc(C(F)(F)F)c1 [XS3-55, N-(3-CHLORO-5-(TRIFLUOROMETHYL)PHENYL)-3-((6-(4-HYDROXYPIPERIDIN-1-YL)IMIDAZO[1,2-B]PYRIDAZINE-3-YL)ETHYNYL)-2-METHYLBENZAMIDE]	100 to 1000	> 1000	< 10	< 10	10 to 100					< 10	100 to 1000	< 10	< 10	< 10
< 10	< 10	< 10	Cc1cn(-c2cc(NC(=O)c3cccc(C#Cc4cnc5ccc(N6CCC(O)CC6)nn45)c3C)cc(C(F)(F)F)c2)cn1 [XS3-87, 3-((6-(4-HYDROXYPIPERIDIN-1-YL)IMIDAZO[1,2-B]PYRIDAZIN-3-YL)ETHYNYL)-2-METHYL-N-(3-(4-METHYL-1H-IMIDAZOL-1-YL)-5-(TRIFLUOROMETHYL)PHENYL)BENZAMIDE]	10 to 100	100 to 1000	< 10	< 10	< 10	10 to 100	10 to 100	< 10	< 10	< 10	10 to 100	< 10	< 10	< 10
< 10	< 10	< 10	Cc1c(C#Cc2cnc3ccc(N4CCOCC4)nn23)cccc1C(=O)Nc1cc(CN2CCN(C)CC2)cc(C(F)(F)F)c1 [XS3-68, 2-METHYL-N-(3-((4-METHYLPIPERAZIN-1-YL)METHYL)-5-(TRIFLUOROMETHYL)PHENYL)-3-((6-METHYLENE) LINOIMIDAZO[1,2-B]PYRIDAZIN-3-YL)ETHYNYL)BENZAMIDE]	100 to 1000	100 to 1000	< 10	< 10	10 to 100	100 to 1000	10 to 100	< 10	< 10	< 10	10 to 100	< 10	< 10	< 10
